Laboratory results taken from US7718385B2, “Bioactivation of alkylating agents for cancer treatment” (priority 2003, dated 2010).

Assays:
COLO 205 = settings: COLO 205, Colon, cited from earlier work
PC-3 = settings: PC-3, Prostate, cited from earlier work
HCC-2998 = settings: HCC-2998, Colon, cited from earlier work
NCI-H460 = settings: NCI-H460, Non-Small Cell Lung; cited from earlier work
LOX IMVI = settings: cited from earlier work
OVCAR-4 = settings: OVCAR-4, Ovarian, cited from earlier work
UACC-257 = settings: UACC-257, Melanoma, cited from earlier work
recombinant rat AOR = recombinant rat AOR (Rattus norvegicus, UniProt P97584, Q160G/Q263G/Q264G/Q276G)
Chain of recombinant rat AOR (P97584 whole entry Q160G/Q263G/Q264G/Q276G): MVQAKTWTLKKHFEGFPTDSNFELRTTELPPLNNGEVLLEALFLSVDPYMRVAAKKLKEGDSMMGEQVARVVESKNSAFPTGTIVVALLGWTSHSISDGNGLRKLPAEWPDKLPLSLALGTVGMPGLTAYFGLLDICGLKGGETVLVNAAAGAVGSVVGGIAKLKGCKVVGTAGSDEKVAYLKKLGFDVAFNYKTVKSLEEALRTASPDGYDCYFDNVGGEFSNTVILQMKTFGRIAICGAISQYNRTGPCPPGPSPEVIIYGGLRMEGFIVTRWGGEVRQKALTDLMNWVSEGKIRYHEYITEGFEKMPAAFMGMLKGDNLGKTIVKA
Protocol: Varied concentrations of illudin M were added to a 200 μl 0.5× phosphate buffered saline (PBS) solution containing 115 ng of AOR and 43.4 nmoles NADPH, and incubated for 1 minute at 37° C. Reactions were then extracted with ethyl acetate containing piperine (internal standard), dried under vacuum, resuspended in HPLC buffer A (60% acetonitrile: 40% water), and injected into a Hewlett-Packard 1050 HPLC system equipped with a Luna C18 column (Phenomenex Inc.). Metabolites were separated using buffer A at a flow rate of 1 ml/min and quantified using diode array detection at 205 nm and previously reported extinction coefficients (Tanaka, et al., 1990). Vmax and Km were calculated using the HYPER program.
Rates were quantified from metabolite peak areas using reported extinction coefficients (Tanaka, et al., 1990; McMorris, et al., 1999).

MALME-3M = settings: cited from earlier work
CCRF-CEM = settings: cited from earlier work
MDA-MB 231/ATCC = settings: cited from earlier work
OVCAR-8 = settings: OVCAR-8, Ovarian, cited from earlier work
SF-268 = settings: SF-268, Central Nervous System, cited from earlier work
SF-539 = settings: SF-539, Central Nervous System, cited from earlier work
SF-295 = settings: SF-295, Central Nervous System, cited from earlier work
[1] = Nonenzymatic reactivity of the 8,9-double bond with GSH (absorbance 330 nm); type: physicochemical; settings: 3.25 mM GSH, pH 7.4, 1 h, 30° C.
Text: Reaction of the 8,9-double bond with GSH was followed spectrophotometrically at 330 nm.
The sulfhydryl group of GSH is a potent nucleophile that rapidly reacts with most electrophilic α,β-unsaturated carbonyl groups via a Michael-addition mechanism.

OVCAR-5 = settings: OVCAR-5, Ovarian; cited from earlier work
SK-MEL-2 = settings: SK-MEL-2, Melanoma, cited from earlier work
HOP-62 = settings: HOP-62, Non-Small Cell Lung, cited from earlier work
T-47D = settings: cited from earlier work
KM12 = settings: KM12, Colon, cited from earlier work

## CC1=C(CO)C2=C(C)C3(CC3)[C@@](C)(O)C(=O)C2=C1 [Irofulven, 6-hydroxymethylacylfulvene]
COLO 205
  GI50: 158 nM
  TGI: 5.01E−07
  log(GI50): −6.8
  log(LC50): −6.2
  log(TGI): −6.3
COLO 205; read-out: LC50
  CC50: 631 nM
PC-3
  GI50: 251 nM
  TGI: 1.26E−06
  log(GI50): −6.6
  log(LC50): −4.5
  log(TGI): −5.9
PC-3; read-out: LC50
  CC50: 31600 nM
HCC-2998
  GI50: 158 nM
  TGI: 3.16E−07
  log(GI50): −6.8
  log(LC50): −6.2
  log(TGI): −6.5
HCC-2998; read-out: LC50
  CC50: 631 nM
NCI-H460
  GI50: 50.1 nM
  TGI: 2.51E−07
  log(GI50): −7.3
  log(TGI): −6.6
LOX IMVI; Melanoma
  GI50: 631 nM
  TGI: 3.16E−06
  log(GI50): −6.2
  log(LC50): −4.4
  log(TGI): −5.5
LOX IMVI; read-out: LC50, Melanoma
  CC50: 39800 nM
OVCAR-4
  GI50: 251 nM
  TGI: 6.31E−07
  log(GI50): −6.6
  log(LC50): −4.6
  log(TGI): −6.2
OVCAR-4; read-out: LC50
  CC50: 25100 nM
UACC-257
  GI50: 251 nM
  TGI: 5.01E−07
  log(GI50): −6.6
  log(LC50): −5.3
  log(TGI): −6.3
UACC-257; read-out: LC50
  CC50: 5010 nM
Recombinant rat AOR
  Vmax: 275 nmol/min/mg
Recombinant rat AOR; relative to the illudins
  decrease in the rate of metabolism by AOR: 100 fold
MALME-3M; Melanoma
  GI50: 200 nM
  TGI: 5.01E−07
  log(GI50): −6.7
  log(LC50): −5.6
  log(TGI): −6.3
MALME-3M; read-out: LC50, Melanoma
  CC50: 2510 nM
CCRF-CEM; Leukemia
  GI50: 2000 nM
  TGI: 3.16E−05
  log(GI50): −5.7
  log(TGI): −4.5
CCRF-CEM; read-out: LC50, Leukemia
  CC50: ≥ 100000 nM
MDA-MB 231/ATCC; Breast
  GI50: 316 nM
  TGI: 1.26E−06
  log(GI50): −6.5
  log(LC50): −4.1
  log(TGI): −5.9
MDA-MB 231/ATCC; read-out: LC50, Breast
  CC50: 79400 nM
OVCAR-8
  GI50: 200 nM
  TGI: 6.31E−07
  log(GI50): −6.7
  log(LC50): −5
  log(TGI): −6.2
OVCAR-8; read-out: LC50
  CC50: 10000 nM
SF-268
  GI50: 251 nM
  TGI: 2.51E−06
  log(GI50): −6.6
  log(TGI): −5.6
SF-268; read-out: LC50
  CC50: ≥ 100000 nM
SF-539
  GI50: 158 nM
  TGI: 5.01E−07
  log(GI50): −6.8
  log(LC50): −6.2
  log(TGI): −6.3
SF-539; read-out: LC50
  CC50: 631 nM
SF-295
  GI50: 316 nM
  TGI: 6.31E−06
  log(GI50): −6.5
  log(LC50): −5
  log(TGI): −5.2
SF-295; read-out: LC50
  CC50: 10000 nM
[1]
  reactivity of the α,β-unsaturated ketone with GSH: relatively resistant to nucleophilic attack
OVCAR-5
  GI50: 158 nM
  TGI: 5.01E−07
  log(GI50): −6.8
  log(LC50): −4.3
  log(TGI): −6.3
SK-MEL-2
  GI50: 200 nM
  TGI: 3.98E−07
  log(GI50): −6.7
  log(LC50): −6.2
  log(TGI): −6.4
SK-MEL-2; read-out: LC50
  CC50: 631 nM
HOP-62
  GI50: 158 nM
  TGI: 3.98E−07
  log(GI50): −6.8
  log(LC50): −5.9
  log(TGI): −6.4
HOP-62; read-out: LC50
  CC50: 1260 nM
T-47D; Breast
  GI50: 200 nM
  TGI: 2.51E−06
  log(GI50): −6.7
  log(TGI): −5.6
T-47D; read-out: LC50, Breast
  CC50: ≥ 100000 nM
KM12
  GI50: 631 nM
  TGI: 2.51E−06
  log(GI50): −6.2
  log(LC50): −4.9
  log(TGI): −5.6
KM12; read-out: LC50
  CC50: 12600 nM
